Tests used:
[1] = tested on: NCl/ADR-RES cell line; test: Potency against adriamycin-resistant breast cancer cell line; assay type: cell-based, human; conditions: vs non-fluorinated parent analog
Experimental: (§1) A panel of cancer cell lines was obtained from the DCTP Tumor Repository, National Cancer Institute (Frederick, Md.) or ATCC (Rockville, Md.). Cell cultures were maintained in Hyclone RPMI 1640 medium (Logan, Utah) supplemented with 10% fetal bovine serum and 20 mM HEPES buffer, final pH 7.2, at 37° C. with a 5% CO2 atmosphere. Cultures were maintained at sub-confluent densities. Human umbilical vein endothelial cells (HUVEC) were purchased from Clonetics, a division of Cambrex (Walkersville, Md.). Cultures were established from cryopreserved stocks using Clonetics EGM-2 medium supplemented with 20 mM HEPES, final pH 7.2, at 37° C. with a 5% CO2 atmosphere.
(§2) For proliferation assays, cells were seeded with the appropriate medium into 96 well plates at 1,000-2,500 cells per well, depending on the cell line, and were incubated overnight. The following day, test compound, DMSO solution (negative control), or Actinomycin D (positive control) was added to the appropriate wells as 10× concentrated stocks prepared in phosphate buffered saline. […] Optical density was determined for each well at […] using a Tecan GeniosPro plate reader (RTP, NC). The percentage of cell growth was determined by comparing the cell growth in the presence of test compounds to the cells treated with DMSO vehicle (control, 100% growth) and cells treated with Actinomycin D (10 μM, 0% growth).

[2] = tested on: MES-SA/Dx5 (MDR+) cell line; test: Potency against multi-drug resistant cell line; assay type: cell-based; conditions: vs non-fluorinated parent analog
Experimental: as §1, §2

[3] = Oral bioavailability in rat; conditions: in vivo, 10 mg/kg over 24 hours, read-out: oral bioavailability (F)
[4] = tested on: PC-3 cell line; test: PC-3 cell proliferation assay; assay type: cell-based; conditions: for IC50: Homo sapiens, PC-3 cells, read-out: inhibitory activity against PC-3 cell proliferation (IC50 range)
Experimental: as §1
For proliferation assays, cells were seeded with the appropriate medium into 96 well plates at 1,000-2,500 cells per well, depending on the cell line, and were incubated overnight. The following day, test compound, DMSO solution (negative control), or Actinomycin D (positive control) was added to the appropriate wells as 10× concentrated stocks prepared in phosphate buffered saline. The cell plates were then incubated for an additional 2-5 days, depending on the cell line, to allow proliferation to occur. To measure cell density, 50 μL of WST-1 solution (Roche Applied Science, Ind.) diluted 1:5 in phosphate buffered saline was added to each well, and the cells incubated for an additional 1-5 hrs., again depending on the cell line. Optical density was determined for each well at […] using a Tecan GeniosPro plate reader (RTP, NC). The percentage of cell growth was determined by comparing the cell growth in the presence of test compounds to the cells treated with DMSO vehicle (control, 100% growth) and cells treated with Actinomycin D (10 μM, 0% growth).
Immediately after the WST-1 determination, the medium was removed from the PC-3, NCI-H460 and HUVEC cell lines, and the plates stored at −80° C. Using these assay plates, relative amounts of DNA in each well were determined using the Cyquant DNA assay kit from […] (Eugene, Oreg.) following the manufacturer's directions. Results for each compound treatment were compared to DMSO vehicle control (100%) and 10 μM Actinomycin D treated cells (0%).

[5] = tested on: HSP-90 (heat shock protein 90); test: Determination of affinity for HSP-90 (purine affinity column elution); assay type: binding; parameters: key: +++: very high; ++: high; +: moderate; conditions: elution from purine affinity column
Experimental: Affinity of test compounds for HSP-90 was determined as follows: Protein mixtures obtained from a variety of organ tissues (for example: spleen, liver and lung) were reversibly bound to a purine affinity column to capture purine-binding proteins, especially HSP-90. The purine affinity column was washed several times, and then eluted with 20 μM, 100 μM, and 500 μM of test compound. Compounds of Formula I elute HP-90 in a dose-dependent manner vs. a control elution using dimethylsulfoxide. The elution profile of Formula I compounds was determined by 1-dimensional SDS polyacrylamide gel electrophoresis. Gels were stained with a fluorescent stain such as sypro ruby (a highly sensitive fluorescent protein stain that can readily detect less than 1 fmol of total protein, i.e., less than 0.04 ng for a 40 kDa protein) or silver nitrate. The gels were imaged using a standard flat bed gel imager and the amount of protein estimated by densitometry. The percent of HSP-90 protein eluted from the column at each concentration was determined and IC50 values were calculated from these estimates.

[6] = Aqueous solubility; assay type: physicochemical; conditions: water; mono hydrochloride salt

SMILES	IC50 [4]	relative binding affinity to HSP-90 [5]	also measured
CC1(C)CC(=O)c2c(CC3CC3)nn(-c3cc(F)c(C(N)=O)c(NC4CCOCC4)c3)c2C1 [Example 48, 4-(3-(cyclopropylmethyl)-6,6-dimethyl-4-oxo-4,5,6,7-tetrahydro-1H-indazol-1-yl)-2-fluoro-6-(tetrahydro-2H-pyran-4-ylamino)benzamide]			times more potent against NCl/ADR-RES cell line [1]: 3-10 times; times more potent against MES-SA/Dx5 (MDR+) cell line [2]: 4-6 times
Cc1nn(-c2cc(F)c(C(N)=O)c(NC3CCOCC3)c2)c2c1C(=O)CC(C)(C)C2 [Example 50, 2-fluoro-6-(tetrahydro-2H-pyran-4-ylamino)-4-(3,6,6-trimethyl-4-oxo-4,5,6,7-tetrahydro-1H-indazol-1-yl)benzamide]			bioavailability [3]: > 40%
CCc1nn(-c2ccc(C(N)=O)c(N[C@H]3CC[C@H](O)CC3)c2F)c2c1C(=O)CC(C)(C)C2 [Example 51, 4-(3-ethyl-6,6-dimethyl-4-oxo-4,5,6,7-tetrahydro-1H-indazol-1-yl)-3-fluoro-2-(trans-4-hydroxycyclohexylamino)benzamide]	< 500 nM	+++	
CCc1nn(-c2cc(F)c(C(N)=O)c(NC3CC=CC3)c2)c2c1C(=O)CC(C)(C)C2 [Example 89, 2-(cyclopent-3-enylamino)-4-(3-ethyl-6,6-dimethyl-4-oxo-4,5,6,7-tetrahydro-1H-indazol-1-yl)-6-fluorobenzamide]	< 500 nM	+++	
CCc1nn(-c2cc(F)c(C(N)=O)c(NCC(OC)OC)c2)c2c1C(=O)CC(C)(C)C2 [Example 97, 2-(2,2-dimethoxyethylamino)-4-(3-ethyl-6,6-dimethyl-4-oxo-4,5,6,7-tetrahydro-1H-indazol-1-yl)-6-fluorobenzamide]	< 500 nM	+++	
C#CCN1CCC(Nc2cc(-n3nc(C(F)F)c4c3CC(C)(C)CC4=O)ccc2C(N)=O)CC1 [Example 106, 4-(3-(difluoromethyl)-6,6-dimethyl-4-oxo-4,5,6,7-tetrahydro-1H-indazol-1-yl)-2-(1-(prop-2-ynyl)piperidin-4-ylamino)benzamide]			inhibition of PC-3 cell line growth, times more ([4]; vs compounds lacking a basic nitrogen or amino group at R6): 5-10 times
CC1(C)CC(=O)c2c(C(F)(F)F)nn(-c3ccc(C(N)=O)c(N[C@@H]4CCCC[C@H]4N)c3)c2C1 [Example 119, 2-((1R,2R)-2-aminocyclohexylamino)-4-(6,6-dimethyl-4-oxo-3-(trifluoromethyl)-4,5,6,7-tetrahydro-1H-indazol-1-yl)benzamide]	< 500 nM	+++	
C#CCN1CCC[C@H](Nc2cc(-n3nc(C(F)(F)F)c4c3CC(C)(C)CC4=O)ccc2C(N)=O)C1 [Example 121, (S)-4-(6,6-dimethyl-4-oxo-3-(trifluoromethyl)-4,5,6,7-tetrahydro-1H-indazol-1-yl)-2-(1-(prop-2-ynyl)piperidin-3-ylamino)benzamide]			solubility [6]: > 10000 µg/mL
CC1(C)CC(=O)c2c(C(F)(F)F)nn(-c3ccc(C(N)=O)c(NCCSc4ncccn4)c3)c2C1 [Example 124, 4-(6,6-dimethyl-4-oxo-3-(trifluoromethyl)-4,5,6,7-tetrahydro-1H-indazol-1-yl)-2-(2-(pyrimidin-2-ylthio)ethylamino)benzamide]	500 to 5000 nM		
CC(C)(C)CN[C@H]1CC[C@H](Nc2cc(-n3nc(C(F)(F)F)c4c3CC(C)(C)CC4=O)ccc2C(N)=O)CC1 [Example 140, 4-(6,6-dimethyl-4-oxo-3-(trifluoromethyl)-4,5,6,7-tetrahydro-1H-indazol-1-yl)-2-(trans-4-(neopentylamino)cyclohexylamino)benzamide]	< 500 nM	+++	
CC1(C)CC(=O)c2c(C(F)(F)F)nn(-c3ccc(C(N)=O)c(NC4CCC4)c3)c2C1 [Example 148, 2-(cyclobutylamino)-4-(6,6-dimethyl-4-oxo-3-(trifluoromethyl)-4,5,6,7-tetrahydro-1H-indazol-1-yl)benzamide]			times more active in PC-3 cell line ([4]; vs open chain butyl or alkyl analogs containing no oxygen): 20-100 times
CC1(C)CC(=O)c2c(C(F)(F)F)nn(-c3ccc(C(N)=O)c(NCCO)c3)c2C1 [Example 150, 4-(6,6-dimethyl-4-oxo-3-(trifluoromethyl)-4,5,6,7-tetrahydro-1H-indazol-1-yl)-2-(2-hydroxyethylamino)benzamide]			times more potent in PC-3 cell line ([4]; vs alkyl analogs without oxygen): 10-30 times
CC1(C)CC(=O)c2c(CC3CC3)nn(-c3ccc(C(N)=O)c(NC4CCOCC4)c3)c2C1 [Example 157, 4-(3-(cyclopropylmethyl)-6,6-dimethyl-4-oxo-4,5,6,7-tetrahydro-1H-indazol-1-yl)-2-(tetrahydro-2H-pyran-4-ylamino)benzamide]	< 500 nM	+++	
C[C@H](O)CNc1cc(-n2nc(C(F)(F)F)c3c2CC(C)(C)CC3=O)ccc1C(N)=O [Example 165, (S)-4-(6,6-dimethyl-4-oxo-3-(trifluoromethyl)-4,5,6,7-tetrahydro-1H-indazol-1-yl)-2-(2-hydroxypropylamino)benzamide]	500 to 5000 nM	+++	
CC1(C)CC(=O)c2c(C(F)(F)F)nn(-c3ccc(C(N)=O)c(N[C@H]4CCCC[C@@H]4O)c3)c2C1 [Example 172, 4-(6,6-dimethyl-4-oxo-3-(trifluoromethyl)-4,5,6,7-tetrahydro-1H-indazol-1-yl)-2-((1S,2S)-2-hydroxycyclohexylamino)benzamide]			times more potent in PC-3 cell line ([4]; vs cyclohexyl analogs not substituted with an oxygen atom): 20-50 times
CCc1nn(-c2ccc(C(N)=O)c(N[C@H]3CCC[C@@H]3O)c2)c2c1C(=O)CC(C)(C)C2 [Example 180, 4-(3-ethyl-6,6-dimethyl-4-oxo-4,5,6,7-tetrahydro-1H-indazol-1-yl)-2-((1S,2S)-2-hydroxycyclopentylamino)benzamide]	< 500 nM	+++	
Cc1nn(-c2ccc(C(N)=O)c(N[C@H]3CCOC3)c2)c2c1C(=O)CC(C)(C)C2 [Example 181, (S)-2-(tetrahydrofuran-3-ylamino)-4-(3,6,6-trimethyl-4-oxo-4,5,6,7-tetrahydro-1H-indazol-1-yl)benzamide]			times more active in PC-3 cell line ([4]; vs non-oxygen containing cyclopentyl analogs): 20-50 times
CCc1nn(-c2ccc(C(N)=O)c3[nH]c(C)nc23)c2c1C(=O)CC(C)(C)C2 [Example 186, 4-(3-ethyl-6,6-dimethyl-4-oxo-4,5,6,7-tetrahydro-1H-indazol-1-yl)-2-methyl-1H-benzo[d]imidazole-7-carboxamide]	5000 to 50000 nM	++	

From patent publication US20080269193A1, “Tetrahydroindole and Tetrahydroindazole Derivatives” (priority 2007, published 2008)
